Laboratory results as given in patent US4358607A, “Chloro-substituted benzospiro cyclopropane carboxylic acid” (American Cyanamid Co., priority 1978, dated 1982).

Experiments:
Assay type in all cases: in vivo
[1] = test system: Two-Spotted Spider Mite [Tetranychus urticae]; experiment: Phosphate-Resistant Strain of Two-Spotted Spider Mite test
Method: Phosphate-Resistant Strain of Two-Spotted Spider Mite [Tetranychus urticae (Koch)].
Sieva lima bean plants, with primary leaves 7.6 to 10 cm long, are infested with about 100 adult mites per leaf 4 hours before use in this test, in order to allow egg-laying before treatment. The infested plants are dipped for 3 seconds with agitation into a 300 ppm solution, and the plants set in the hood to dry. After 2 days at 26.7° C., the adult mite mortality is estimated on one leaf under a 10X stereoscopic microscope. The other leaf is left on the plant an additional 5 days and then examined at 10X power to estimate the kill of eggs and of newly-hatched nymphs, giving a measure of ovicidal and residual action, respectively.
(§1) The rating system employed in these tests is as follows:
(§2) Compounds rated active (8 or 9) are further tested at reduced concentrations in 50% acetone: 50% water.

[2] = test system: Southern Armyworm [Spodoptera eridania]; experiment: Southern Armyworm test; conditions: 2 days
Method: (§3) Southern Armyworm [Spodoptera eridania (Cramer)].
(§4) A sieva lima bean plant with just the primary leaves expanded to 7.6 to 10 cm is dipped for 3 seconds with agitation in a 1000 ppm solution and set in a hood to dry. Following this, one leaf is placed in a 10 cm petri dish which has a moist filter paper in the bottom and 10 third-instar armyworm larvae about 1 cm long. The dish is covered and held at 26.7° C. After 2 days mortality counts and estimates of the amount of feeding are made. Compounds showing partial kill and/or inhibition of feeding are held for an extra day for further observations.
as §1, §2

[3] = test system: Southern Armyworm [Spodoptera eridania]; experiment: Southern Armyworm residual activity, 7 days; conditions: 7 days from original treatment
Method: as §3, §4
All compounds showing activity as defined above are retested, using the second leaf on the bean plant, after an interval of 7 days from original treatment, as an assay of residual activity.
The rating system employed in these tests is as follows: […]

[4] = test system: Mexican Bean Beetle (Epilachna varivestis); experiment: Mexican Bean Beetle test
Source text: Mexican Bean Beetle (Epilachna varivestis Mulsant)
Sieva lima bean plants (2 per pot) with primary leaves 7.6 to 10 cm long, are dipped in a 300 ppm solution and set in a hood to dry. One leaf is removed from the plant and placed in a 10 cm petri dish containing a moist filter paper on the bottom and 10 last-instar larvae (13 days from hatching).
The day after treatment, another leaf is removed from the plant and fed to the larvae after removing the remains of the original leaf. Two days after treatment, the third leaf is fed to the larvae, this usually being the last needed. The fourth leaf is used on the third day after treatment if the larvae have not finished feeding. The test is now set aside and held until adults have emerged, usually about 9 days after treatment began. After emergence is complete, each dish is examined for dead larvae, pupae or adults; deformed pupae or adults; larval-pupal intermediates or pupal-adult intermediates; or any other interference with normal molting, transformation and emergence of pupae or adults.
as §1, §2

## CC1(C)C(C(=O)OC(C#N)c2cccc(Oc3ccccc3)c2)C12C=C(Cl)c1ccccc12 (stereo not shown) [drawing 11]
[1]; 10 ppm
  Activity rating, Phosphate Resistant Mites: 0 (0-4% killed or affected)
[1]; 100 ppm
  Activity rating, Phosphate Resistant Mites: 5 (51-60% mortality)
[1]; 300 ppm
  Activity rating, Phosphate Resistant Mites: 8 (86-95% mortality)
[2]; 10 ppm
  Insecticidal activity rating, Southern Armyworms: 7 (71-85% mortality)
[2]; 100 ppm
  Insecticidal activity rating, Southern Armyworms: 9 (100% mortality)
[2]; 1000 ppm
  Insecticidal activity rating, Southern Armyworms: 9 (100% mortality)
[3]
  Insecticidal activity rating, Southern Armyworms, 7-days: 0 (0-4% killed or affected)
[4]; 10 ppm
  Insecticidal activity rating, Mexican Bean Beetles: 9 (100% mortality)
[4]; 100 ppm
  Insecticidal activity rating, Mexican Bean Beetles: 9 (100% mortality)
[4]; 300 ppm
  Insecticidal activity rating, Mexican Bean Beetles: 9 (100% mortality)
